Data published in patent US20060128997A1, “New method for the preparation of 1,5-bis(4-hydroxy-3-metoxy-phenyl)-penta-1,4-dien-3-one and derivatives with antitumoral properties” (priority 2003, published 2006).
Several values for one entry are separate records, joined by “and”; a condition that tells them apart may be missing. Equal values may be shown once.

Legend:
[1] = test system: HT-1080; details: literature values (Banskota, Kimoto); unit not given; cited from earlier work
[2] = test system: Colon L5-26; details: literature values (Banskota, Kimoto); unit not given; cited from earlier work
[3] = test system: MCF7 (Normal mamma tumor); assay: Antiproliferate test in tumoral human cells, sulforrodamina B essay; format: cell-based
Experimental: (§1) Methodology utilized to perform the antitumoral tests:
(§2) Report of the Antiproliferate Test in Tumoral Human Cells with the Sulforrodamina B Essay
(§3) The cell lines used in the essays, described in the table 1, were maintained in recipients of 25 cm^2 (Nunc®), with 5 mL of culture medium RPMI 1640 supplemented with 5% bovine foetal serum (RPMI/SFB), at 37° C. in atmosphere of 5% of CO2 and 100% of humidity.
(§4) […] of cells in medium RPMI/SFB with 50 μg/mL of Gentamicin were inoculated in its respectives densities of inoculation, in plates of 96 compartments and incubated for 24 hours at 37° C. in atmosphere of 5% of CO2 and 100% of humidity.
(§5) After 24 hours, […] of the test substance were added in the following concentrations of 250; 25; 2.5; 0.2 μg/mL diluted in RPMI/SFB/gentamicin. In this moment the reading of one plate was performed for the determination of the T0 (cell control in the moment of the adding the samples). The other plates were incubated for 48 hours After this period the experiment was paused by adding the trichlorine acetic acid to further determine the protein content by means of […] essay with the sulforrodamina B.
(§6) The stocked solutions were developed by diluting the samples in dimethyl sulfoxide (DMSO) in the concentration of 0.1 g/mL. That solution was diluted by 400 times in RPMI/SFB/gentamicina to be added in the plates of 96 compartments being obtained so the a ideal concentration of DMSO (Skehan e cols. 1990).
(§7) At the end of the test, the plates of 96 compartments were centrifuged for 3 minutes at 2000 rpm, and they were fixed with 50 μL of a solution at 50% of trichloroacetic acid (TCA) at 4° C. To complete the cellular fixation, the plates were incubated for 1 hour at 4° C.
(§8) The plates were submitted to four consecutive washes with distillated water to remore the residues of TCA, medium, SFB and secondary metabolic and maintained at room temperature until the complete drying.
(§9) A coloration was performed by the adding of 50 μL SRB at 0.4% (weight/volume) diluted in acetic acid at 1%, and maintained at 4° C. for 30 minutes. Further, they were washed by 4 consecutive times with a solution of acetic acid 1%. The residue of the washing of the solution was removed and the plates were dried again at room temperature. The colorant linked to the cellular protein was diluted with a solution of Trizma Base (Sigma®) in concentration of […] and pH 10.5 for 5 minutes in ultrasonic bath. The spectrophotometric of absorbancy reading was performed in 560 nm in a micro plates lector (Labsystems Labsystems Multiskan® MCC/340).
(§10) The absorbancy averages were assessed having discounted its respective nulls and by means of the formula shown below was determined the growth inhibition (IC) of each tested sample.
(§11) If T≧T0 but <C, the drug was cytostatic and the formula used is 100×[(T−To)/(C−T0)]
(§12) If T<T0 the drug was cytotoxic and the formula used is […]
(§13) Considering that T is the absorbency average of the treated cell C is the cell control and T0 is the cell control in the addition day.
(§14) The obtained result was subtracted from 100% so obtaining the percentage of growth inhibition. The samples were considered actives since they presented growth inhibition dependant dose higher than 50% and selective lineage, that is, the preferential activity for only one type of tumoral cell or with cytostatic and/or killer cell effect well distinguished among the cell lines.
(§15) All the assays were performed in triplicates so that the presented results make reference to a representative experiment. The standard deflection from the average was always lower than 5%.

[4] = test system: NCI460 (Lung tumor); assay: as above; format: cell-based
Experimental: as §1, §2, §3, §4, §5, §6, §7, §8, §9, §10, §11, §12, §13, §14, §15

[5] = test system: NCIADR (Mamma tumor which expresses the phenotype resistance against multiple drugs); assay: as above; format: cell-based; details: for growth inhibition of the Mama NCI-ADR cell line, in words: resistance against multiple drugs
Experimental: as §1, §2, §3, §4, §5, §6, §7, §8, §9, §10, §11, §12, §13, §14, §15

[6] = test system: UACC62 (Melanoma); assay: as above; format: cell-based
Experimental: as §1, §2, §3, §4, §5, §6, §7, §8, §9, §10, §11, §12, §13, §14, §15

[7] = test system: all cell lines (nine different types of human cancer); assay: Antiproliferate test, sulforrodamina B essay, whole panel of cell lines; format: cell-based; details: for concentration from which cytotoxic / killer cell activity (cellular death) is presented: all cell lines of the panel
Experimental: as §1, §2, §3, §4, §5, §6, §7, §8, §9, §10, §11, §12, §13, §14, §15

[8] = Acute toxicity test (LD50, body weight, deaths); format: in vivo, albinic swiss mouses; details: for Initial Weight, Average ± dpm / Initial Weight, single animal: beginning of the test; for Final Weight, Average ± dpm / Final Weight, single animal: ending of the test
Experimental: Also a toxicological test with the sample denominated 37 compound (Acute Toxicity, LD50, via intraperitoneal).
Methodology utilized to perform the toxicological tests:
10 albinic swiss mouses are used, of the male gender, weighting approximately 25 g, for each of the treated groups and control;
Adaptation period: the animals are maintained in the tests room at least for 07 days before the beginning of the essay;
The animals are submitted to fast 12 hours before administering the test substance, done by gavage, at the time the animal's body weight is listed.
After the administration the animals are maintained in observation for a minimum period of 14 days.
The number of death animals for each one of the doses is listed and the LD50 is assessed by Litchfield and Wilcoxon's (1949) method and the animal's body weight is listed at the end of the acute toxicity test.

CC(C)=CCc1cc(C=CC(=O)O)cc2c1OC(C)(C)C(O)C2 (centres unmarked) [Compound 1, 3-hydroxy-2,2-dimethyl-8-prenylchromane-6-propenoic acid]
Cytotoxicity HT-1080 [1]: 71.53
Cytotoxicity Colon L5-26 [2]: 77.07

COc1cc(C=CC(=O)C=Cc2ccc(O)c(OC)c2)ccc1O [Compound 37, 1,5-bis(4-hydroxy-3-methoxyphenyl)-penta-1,4-dien-3-one]
concentration with cytotoxic activity (cellular death) [3]: ≥ 250 ng/mL
concentration with cytotoxic activity (cellular death) [4]: ≥ 250 ng/mL
concentration with cytotoxic activity (cellular death) [5]: ≥ 250 ng/mL
growth inhibition of the Mama NCI-ADR cell line, in words ([5]; listed as 37/01): strong cytostatic activity
growth inhibition of the Mama NCI-ADR cell line, in words ([5]; listed as our product): inhibited the growth
concentration with cytotoxic activity (cellular death) [6]: ≥ 250 ng/mL
cytostatic / antiproliferate activity (growth inhibition), in words ([7]; all cell lines): cytostatic activity (growth inhibition) for all cell lines
concentration from which cytotoxic / killer cell activity (cellular death) is presented [7]: ≥ 250 ng/mL
cytostatic / antiproliferate activity (growth inhibition), in words ([7]; all cell lines, listed as 37/01): cytostatic activity (growth inhibition) in the concentrations evaluated
Deaths (n), single animal ([8]; 2.5 g/Kg via intraperitoneal): 0
Initial Weight, Average ± dpm ([8]; 2.5 g/Kg via intraperitoneal): 24.60 ± 2.51 g
Initial Weight, single animal ([8]; 2.5 g/Kg via intraperitoneal): 24.5 g and 25.4 g (2×) and 24.1 g and 26.6 g and 24.8 g and 22.5 g and 29.7 g and 22.4 g and 20.6 g
Final Weight, Average ± dpm ([8]; 2.5 g/Kg via intraperitoneal): 27.88 g
Final Weight, single animal ([8]; 2.5 g/Kg via intraperitoneal): 26.4 g and 28.0 g and 28.6 g and 27.4 g and 29.0 g and 27.8 g and 25.0 g and 31.2 g and 25.4 g and 22.8 g
Deaths (n), single animal ([8]; 3.0 g/Kg via intraperitoneal): 0 (9×) and 1
Initial Weight, Average ± dpm ([8]; 3.0 g/Kg via intraperitoneal): 25.47 ± 2.43 g
Initial Weight, single animal ([8]; 3.0 g/Kg via intraperitoneal): 28.3 g and 30.9 g and 24.6 g and 25.4 g and 25.1 g and 23.2 g and 23.6 g (2×) and 26.0 g and 24.0 g
Final Weight, Average ± dpm ([8]; 3.0 g/Kg via intraperitoneal): 27.81 g
Final Weight, single animal ([8]; 3.0 g/Kg via intraperitoneal): 30.3 g and 32.5 g and 25.9 g and 28.0 g and 27.9 g and 25.6 g and 26.0 g and 25.8 g and 28.3 g and Death
Deaths (n), single animal ([8]; 4.0 g/Kg via intraperitoneal): 0 (9×) and 1
Initial Weight, Average ± dpm ([8]; 4.0 g/Kg via intraperitoneal): 26.41 ± 3.52 g
Initial Weight, single animal ([8]; 4.0 g/Kg via intraperitoneal): 29.8 g and 25.5 g and 33.2 g and 25.9 g and 26.3 g and 28.9 g and 26.7 g and 23.3 g (2×) and 21.2 g
Final Weight, Average ± dpm ([8]; 4.0 g/Kg via intraperitoneal): 28.98 g
Final Weight, single animal ([8]; 4.0 g/Kg via intraperitoneal): 32.5 g and 26.9 g and 35.9 g and 28.9 g and 29.0 g and 30.2 g and 28.0 g and 25.9 g and 23.5 g and Death
Deaths (n), single animal ([8]; 5.0 g/Kg via intraperitoneal): 0 (8×) and 1 (2×)
Initial Weight, Average ± dpm ([8]; 5.0 g/Kg via intraperitoneal): 23.68 ± 1.42 g
Initial Weight, single animal ([8]; 5.0 g/Kg via intraperitoneal): 24.9 g and 21.0 g and 25.4 g and 22.2 g and 24.0 g and 23.8 g and 22.5 g and 23.5 g and 24.2 g and 25.3 g
Final Weight, Average ± dpm ([8]; 5.0 g/Kg via intraperitoneal): 25.86 g
Final Weight, single animal ([8]; 5.0 g/Kg via intraperitoneal): 25.9 g (2×) and 24.0 g and 27.8 g and 25.6 g and 27.0 g and 25.8 g and 24.9 g and Death (2×)
toxicity classification according to Loomis, in words ([8]; from LD50 (5.0-15 g/Kg = practically nontoxic)): practically nontoxic
LD50 at 14 days ([8]; male, Swiss albino, mouse, in vivo, ip, acute toxicity, via intraperitoneal, linear regression, 14 days of observation): 8540 mg/kg

CC(C)=CCc1cc(C=CC(=O)O)ccc1OC(=O)CCc1ccccc1 [Compound 4, 4-dihydrocinnamoyloxy-3-prenylcinnamic acid]
Cytotoxicity HT-1080 [1]: 25.94
Cytotoxicity Colon L5-26 [2]: 77.90

COc1cc(C=CC(=O)C=Cc2ccc(OC(C)=O)c(OC)c2)ccc1OC(C)=O [EHB1, 1,5-bis(3-metoxy-4-acetoxyphenyl)-penta-1,4-dien-3-one]
growth inhibition ([5]; NCI-ADR cell line, concentration not clearly stated (from 25 μg/mL)): around 25%
concentration from which cytostatic activity (growth inhibition) is presented ([7]; all cell lines): ≥ 0.25 µg/mL
concentration from which cytotoxic / killer cell activity (cellular death) is presented [7]: ≥ 25000 ng/mL
selectivity for the studied cell lines, in words ([7]; panel of cell lines): not selective

CC(C)=CCc1cc(C=CC(=O)O)cc2c1OC(C)(C)C=C2 [Compound 2, 2,2-dimethyl-8-prenyl-2H-1-benzopyranbenzopyrene-6-yl-2-propenoic acid]
Cytotoxicity HT-1080 [1]: 46.86
Cytotoxicity Colon L5-26 [2]: 50.22
